Measurements published in article PMC8881063 (Journal of Enzyme Inhibition and Medicinal Chemistry, 2022).
“Also recorded” adds a separate entry of the source.

Tests used:
recombinant human MAO-A = biological target: T1, recombinant human MAO-A (Homo sapiens, UniProt P21397); test: hMAO-A inhibition, spectrophotometric assay; format: biochemical
T1 sequence (P21397 1-527): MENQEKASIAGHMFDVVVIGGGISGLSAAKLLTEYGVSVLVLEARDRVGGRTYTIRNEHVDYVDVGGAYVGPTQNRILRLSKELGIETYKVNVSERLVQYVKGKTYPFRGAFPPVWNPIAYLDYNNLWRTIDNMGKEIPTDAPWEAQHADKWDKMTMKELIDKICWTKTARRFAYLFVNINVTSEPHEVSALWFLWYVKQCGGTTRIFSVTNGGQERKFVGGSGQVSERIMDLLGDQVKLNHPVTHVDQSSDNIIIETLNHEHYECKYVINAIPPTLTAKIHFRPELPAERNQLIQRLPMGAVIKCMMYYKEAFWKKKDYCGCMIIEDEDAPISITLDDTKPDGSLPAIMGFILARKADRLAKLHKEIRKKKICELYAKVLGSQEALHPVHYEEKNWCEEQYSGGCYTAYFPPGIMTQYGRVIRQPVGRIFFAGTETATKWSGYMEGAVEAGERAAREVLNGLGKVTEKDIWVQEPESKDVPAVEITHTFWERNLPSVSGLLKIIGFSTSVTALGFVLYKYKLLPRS
Excerpt: Two different MAO isoforms are known.

BV2 cells = test: BV2 cell viability, WST-1 assay; format: cell-based; conditions: doses of 1, 10, 30 and 50 µM
Excerpt: Promising antineurodegenrative candidate molecules should not impair viability of CNS cells. Microglia are critical cells within CNS involved in microglia–neuron communications and are responsible for maintenance of brain integrity and health[61]^,[62]. However, under neuroinflammatory conditions, aberrant activation of microglia contributes to neurodegeneration and disease progression. In this regard, suppression of the abnormal activation while maintenance of viability of microglia is important considerations. […] The viability assay was carried out using the water-soluble tetrazolium reagent WST-1 which eliminates the formazan dissolution step requested in case of MTT[65] employing multiple doses of 1, 10, 30, and 50 µM. […] In lieu of this, it might be inferred that these compounds showing effective inhibition of MAO-B activity and triggering no impairment of microglia viability are good candidates might be advanced for further evaluation towards the development of multifunctional molecules for neurodegenerative diseases such as PD.
The impact of the compounds on the viability of cells was performed by the well-known WST-1 assay method as described in the Supporting information.

[1] = system: LPS-treated BV2 cells (NO production); test: LPS-induced production of nitric oxide in BV2 cells; format: cell-based; conditions: different concentrations, Figure 3(A)
Experimental: (§1) Neuroinflammation is a crucial component in neurodegenerative diseases. Chronic activation of microglia, which are the brain-resident form of macrophages, results in sustained production of several proinflammatory mediators including glial NO, PGE2, and others molecules that are implicated in multiple neurodegenerative diseases. […] In this regard, LPS-treated BV2 cells were incubated with or without different concentrations of each compound. […] Based on collective results of antineuroinflammatory activity evaluation, in conjugation with above-conducted MAO inhibitions’ assays, compound 1p might be claimed as a promising lead compound eliciting polypharmacological effects combining inhibition of neuroinflammation and MAO-B activity; both processes are crucial components of neurodegenerative diseases such as PD.
(§2) The abilities of compounds to inhibit the induced production of NO and PGE2 were assessed by well-known protocol as indicated in the Supporting information.

[2] = system: LPS-treated BV2 cells (PGE2 production); test: LPS-induced production of PGE2 in BV2 cells; format: cell-based; conditions: different concentrations, Figure 3(B)
Experimental: as §1, §2

MAO-B [3] = biological target: T2, MAO-B (Homo sapiens, UniProt P27338); test: MAO-B inhibition kinetic study (Michaelis–Menten, Lineweaver–Burk); format: biochemical
T2 sequence (P27338 1-520): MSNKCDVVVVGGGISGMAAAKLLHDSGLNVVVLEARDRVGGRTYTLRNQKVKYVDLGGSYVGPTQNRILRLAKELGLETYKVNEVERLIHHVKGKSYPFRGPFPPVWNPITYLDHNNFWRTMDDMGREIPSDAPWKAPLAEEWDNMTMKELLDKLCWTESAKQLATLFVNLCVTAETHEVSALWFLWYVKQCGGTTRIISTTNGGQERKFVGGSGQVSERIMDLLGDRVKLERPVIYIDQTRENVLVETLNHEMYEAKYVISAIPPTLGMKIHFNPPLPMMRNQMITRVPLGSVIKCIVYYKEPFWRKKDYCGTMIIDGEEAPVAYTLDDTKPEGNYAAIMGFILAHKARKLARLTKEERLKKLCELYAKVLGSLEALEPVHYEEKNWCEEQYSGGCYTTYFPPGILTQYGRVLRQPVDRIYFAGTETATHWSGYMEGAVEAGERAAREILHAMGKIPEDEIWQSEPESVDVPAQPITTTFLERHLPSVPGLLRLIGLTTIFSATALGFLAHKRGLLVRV
Experimental: (§3) To get insights into MAO-B inhibition reaction by compounds 1p and 1y, a kinetic study and reversibility testing were conducted. As illustrated in Figure 4(A,B), Michaelis–Menten graphs were constructed using different concentrations of compounds 1p and 1y employing different concentrations benzylamine as a substrate.
(§4) Kinetics of the inhibition of MAO-B and testing of reversibility were conducted according to literature-reported protocols[59] as indicated in the Supporting information.

MAO-B [4] = biological target: T2, MAO-B; test: MAO-B inhibition reversibility testing (washing); format: biochemical; conditions: enzymatic activity after washing
Experimental: as §3, §4

MAO-B [5] = biological target: T2, MAO-B; test: hMAO-B inhibition, spectrophotometric assay
Experimental: The inhibitory activities of the compounds against hMAO-A and hMAO-B enzymes were evaluated referring to a previously described method (Supporting information)[49].

With `COc1ccc(/C=C2\Oc3cc(O)ccc3C2=O)c(OC)c1OC` [Compound 1p] the IC50 (recombinant human MAO-A) was greater than 100000 nM, the inhibition at 10 µM (recombinant human MAO-A; single dose concentration of 10 µM) was -1.53% and the “Impact on viability of BV2 cells” value (BV2 cells) was “none of the tested concentrations”. For the same molecule, the “Effect on LPS-induced NO production by BV2 cells” value [1] was “significant inhibition of NO production”, the “Effect on LPS-induced PGE2 production by BV2 cells” value [2] was “effectively suppressed the induced-PGE2 production” and the “Type of MAO-B inhibition” value (MAO-B [3]; Lineweaver–Burk plots) was “competitive inhibitors; also recorded: Competitive inhibition”. For the same molecule, the Ki (MAO-B [3]; benzylamine as substrate) was 36.5 nM, the “Reversibility of MAO-B inhibition” value (MAO-B [4]) was “washing restored the enzymatic activity” and the IC50 (MAO-B [5]) was 171 nM. For the same molecule, the “Selectivity index for inhibition of MAO-B” value (MAO-B [5]; IC50 MAO-A divided by IC50 MAO-B) was greater than 583 and the inhibition at 10 µM (MAO-B [5]; read-out: MAO-B % Inhibition, single dose concentration of 10 µM) was 96.7%.
